The values that follow come from patent US20050209237A1, “Method for decreasing capillary permeability in the retina” (priority 2002, published 2005).

For this experiment, the system named is BRB breakdown in mice exposed to vascular endothelial growth factor (VEGF). The experiment can be described thus: BRB breakdown quantitated with intraperitoneal [3H]-mannitol tracer in mice after intravitreal VEGF. Format: in vivo, C57B/J6 mice. The following applies: gavage 50 mg/kg for three days prior to intravitreal VEGF 10^-6 M, [3H]-mannitol tracer at 6 hours. From the text:
Intraperitoneally administered radiolabeled tracer can be used to quantitate BRB breakdown in mice exposed to vascular endothelial growth factor (VEGF). This technique is particularly advantageous with neonatal mice because of the technical difficulty involved with intravascular injections. Also, the comparison of retinas from injected and control eyes to tissues without a blood-tissue barrier corrects for variations in the amount of isotope injected or absorbed into the circulation.
Ten six- to seven-week-old C57B/J6 mice (Jackson Labs, Bar Harbor, Me.) are weighed to determine the proper dosage of anesthesia and tracer required. Mice are anesthetized with a solution containing 25 mg/kg ketamine (Ketaset; Fort Dodge Animal Health, Fort Dodge, Iowa) and 4 mg/kg rompun (Tranquived; Vedco, St. Joseph, Mo.) diluted 1:10 in saline prior to injection. […]
One ml NCSII (Amersham, Chicago, Ill.) solubilizing solution is added to each vial and the vials are incubated overnight in a 50° C. water bath. […] The specimens are counted on a Wallace 1409 Liquid Scintillation Counter (Gaithersburg, :Md.).
The counts per mg tissue are determined for treated (with 4-pyridylmethyl-phthalazine derivative) and untreated retina, lung, and kidney. Ratios of these values for treated or untreated retina/lung or kidney and for lung/kidney are calculated. […]

4-pyridylmethyl-phthalazine: where the note is “VEGF/vehicle-treated 0.6806±0.1060, Student-t value 0.0201”, the retina/kidney ratio was 0.3881±0.0436. Moreover, the “retina/lung ratio (cpm per mg of retina/cpm per mg of lung)” value (VEGF/vehicle-treated 0.8785±0.0946, Student-t value 0.0467) is on record as 0.6326±0.0656.
